Results from patent US20050266469A1, “Alternatively spliced isoforms of checkpoint kinase 1 (CHK1)” (priority 2004, published 2005).
Where two headings read alike, the source gives them in different places. Each block holds one compound with its values, some of them ahead of it.

What was measured:
[1] = target: T1, CHK1sv1 (Homo sapiens, UniProt O14757); test: CHK1sv1 kinase assay (Homogenous Time-Resolved Fluorescence, synthetic peptide substrate); type: biochemical
T1 construct: made in house; host or cells: SF9 insect cells (baculovirus, pVL1393 transfer vector)
T1 sequence (O14757 with tags, fused parts or gaps): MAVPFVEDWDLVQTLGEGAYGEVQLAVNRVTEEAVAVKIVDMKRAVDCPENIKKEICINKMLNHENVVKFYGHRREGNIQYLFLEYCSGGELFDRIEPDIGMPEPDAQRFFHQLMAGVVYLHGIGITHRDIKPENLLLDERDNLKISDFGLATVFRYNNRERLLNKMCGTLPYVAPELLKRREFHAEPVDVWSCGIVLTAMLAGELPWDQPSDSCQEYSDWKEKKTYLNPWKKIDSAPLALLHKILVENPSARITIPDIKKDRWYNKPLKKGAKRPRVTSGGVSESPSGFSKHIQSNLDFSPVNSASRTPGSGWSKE
Description: CHK1sv1 activity was assayed in vitro using a synthetic peptide substrate. The phophopeptide product was quantitated using a Homogenous Time-Resolved Fluorescence assay system (Park et al., 1999, Anal. Biochem. 269:94-104). The reaction mixture contained 40 mM HEPES, pH 7.3; 100 mM NaCl; 10 mM MgCl2; 2 mM dithiothreitol; 0.1% BSA; 0.1 mM ATP; 0.5 μM peptide substrate; and 0.1 nM CHK1sv1 enzyme in a final volume of 40 μl. […] The kinase reaction was incubated for 30 minutes at 22° C., and then terminated with 60 μl Stop/Detection Buffer (40 mM HEPES, pH 7.3; 10 mM EDTA; 0.125% Triton X-100; 1.25% BSA; 250 nM PhycoLink Streptavidin-Allophycocyanin (APC) Conjugate (Prozyme, San Leandro, Calif.); and […] Europium-chelate labeled anti-phosphotyrosine antibody (PY20, Perkin Elmer, Boston, Mass.)). The reaction was allowed to equilibrate for 2 hours at 22° C., and relative fluorescent units were read on a Discovery plate reader (Packard Biosciences). ATP Km was determined by varying ATP concentration from 0.003 to 3 mM in the reaction described above and determining the relative enzymatic rates. […] CHK1sv1 Vmax was calculated by determining the amount of phospho-peptide product formed per microgram of CHKsv1 when both ATP and CDC25C peptide substrate are at saturating concentrations.

[2] = target: T2, reference CHK1 (Homo sapiens, UniProt O14757); conditions: cited from earlier work
T2 sequence (O14757 1-476): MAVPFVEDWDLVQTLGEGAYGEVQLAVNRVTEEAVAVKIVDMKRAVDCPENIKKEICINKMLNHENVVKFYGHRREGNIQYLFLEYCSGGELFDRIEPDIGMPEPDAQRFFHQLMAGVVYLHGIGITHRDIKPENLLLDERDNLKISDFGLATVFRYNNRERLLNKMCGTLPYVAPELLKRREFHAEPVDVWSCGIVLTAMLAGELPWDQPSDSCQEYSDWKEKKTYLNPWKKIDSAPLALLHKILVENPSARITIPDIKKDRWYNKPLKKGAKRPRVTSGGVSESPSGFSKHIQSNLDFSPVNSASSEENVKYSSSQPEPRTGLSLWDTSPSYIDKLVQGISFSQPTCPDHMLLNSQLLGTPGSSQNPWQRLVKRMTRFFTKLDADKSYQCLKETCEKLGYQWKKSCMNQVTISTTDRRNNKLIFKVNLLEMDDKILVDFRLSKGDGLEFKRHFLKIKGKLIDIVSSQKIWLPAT

[3] = read-out: CHK1sv1 inhibition by derivatives of staurosporin, IC50 values, CHK1sv1 enzyme 0.1 nM, 0.1 mM ATP, 0.5 μM peptide substrate, 30 minutes at 22° C.

Compound: Cn1c2ccccc2c2c3c(c4c5ccccc5n(CCC#N)c4c21)CNC3=O [Gö6976]
IC50 [1, 3]: 0.75 nM
IC50 ([2]; previously published (Davies et al., 2000), read-out: IC50 value for the reference CHK1 inhibited by Gö6976): 3 nM

Compound: COC(=O)[C@@]1(O)C[C@H]2O[C@]1(C)n1c3ccccc3c3c4c(c5c6ccccc6n2c5c31)C(=O)NC4 [K252A]
IC50 [1]: 50 nM

Compound: Cn1cc(C2=C(c3cn(CCCN)c4ccccc34)C(=O)NC2=O)c2ccccc21 [RO317549]
IC50 [1, 3]: 125 nM

IC50 ([1]; CHK1sv1 enzyme 0.1 nM, 0.1 mM ATP, 0.5 μM peptide substrate, 30 minutes at 22° C.): 390 nM
Compound: CN(C)C[C@H]1CCn2c(c(C3=C(c4cn(C)c5ccccc45)C(=O)NC3=O)c3ccccc32)C1 [RO-320432]

Km ([1]; CDC25C-derived peptide varied from 0.0003 to 1 mM): 120 µM
Compound: CDC25C substrate: peptide derived from the known CHK1 kinase substrate CDC25C, GLYRSPSMPENLNR (SynPep) (listed as Homo sapiens)
Km ([2]; previously described (O'Neill et al., 2002; Jackson et al., 2000), read-out: Km (CDC25C substrate)): 12 µM
